Test results: ChEMBL document CHEMBL5113390, “Design, synthesis and antitumor evaluation of novel 1H-indole-2-carboxylic acid derivatives targeting 14-3-3η protein” (Eur J Med Chem, 2022)
pIC50: −log10 of the molar value.

Key:
[1] = tested on: Hep 3B2; assay: Induction of apoptosis in human Hep3B cells assessed as late apoptotic cells at 5 uM measured after 48 hrs by Annexin V/FITC-PI staining based flow cytometry assay (reference value: 3.14%); assay type: functional
[2] = tested on: Hep 3B2; assay: Induction of cell cycle arrest in human Hep3B cells assessed as accumulation at S phase at 1 uM incubated for 48 hrs by flow cytometry analysis (reference value: 30.56 %); assay type: functional
[3] = tested on: HepG2; assay: Antiproliferative activity against human HepG2 cells assessed as reduction in cell viability incubated for 72 hrs by MTT assay; assay type: functional, cell-based; conditions: HepG2, 72 h
[4] = tested on: Hep 3B2; assay: Antiproliferative activity against human Hep3B cells assessed as reduction in cell viability incubated for 72 hrs by MTT assay; assay type: functional, cell-based
[5] = Metabolic stability in rat liver microsomes assessed as half life; assay type: ADME, Microsome
[6] = tested on: hERG; assay: Selectivity ratio of IC50 for inhibition of hERG by automated patch clamp analysis to IC50 for antiproliferative activity against human SMMC-7721 cells assessed as reduction in cell viability incubated for 72 hrs by MTT assay; assay type: toxicity, cell-based; conditions: read-out: Ratio IC50
[7] = tested on: Hep 3B2; assay: Induction of apoptosis in human Hep3B cells assessed as viable cells at 1 uM measured after 48 hrs by Annexin V/FITC-PI staining based flow cytometry assay (reference value: 90.09%); assay type: functional; conditions: read-out: Activity
[8] = tested on: Hep 3B2; assay: Induction of apoptosis in human Hep3B cells assessed as necrotic cells at 1 uM measured after 48 hrs by Annexin V/FITC-PI staining based flow cytometry assay (reference value: 0.12%); assay type: functional
[9] = tested on: Hep 3B2; assay: Inhibition of cell invasion in human Hep3B cells incubated for 72 hrs by crystal violet staining based transwell assay; assay type: functional; conditions: dose 1-10 µM, DDE = dose-dependent effect
[10] = tested on: SNU-387; assay: Antiproliferative activity against human SNU-387 cells assessed as reduction in cell viability incubated for 72 hrs by MTT assay; assay type: functional, cell-based; conditions: SNU-387, 72 h
[11] = tested on: Bel7402/5-FU; assay: Antiproliferative activity against human BEL-7402/5-FU cells overexpressing 14-3-3 eta assessed as reduction in cell viability incubated for 72 hrs by MTT assay; assay type: functional, cell-based
[12] = tested on: Hep 3B2; assay: Induction of cell cycle arrest in human Hep3B cells assessed as accumulation at S phase at 2.5 uM incubated for 48 hrs by flow cytometry analysis (reference value: 30.56 %); assay type: functional
[13] = tested on: Bel-7402; assay: Antiproliferative activity against human Bel-7402 cells assessed as reduction in cell viability incubated for 72 hrs by MTT assay; assay type: functional, cell-based; conditions: Bel-7402, 72 h
[14] = tested on: Hep 3B2; assay: Induction of apoptosis in human Hep3B cells assessed as necrotic cells at 10 uM measured after 48 hrs by Annexin V/FITC-PI staining based flow cytometry assay (reference value: 0.12%); assay type: functional
[15] = tested on: Hep 3B2; assay: Induction of apoptosis in human Hep3B cells assessed as early apoptotic cells at 1 uM measured after 48 hrs by Annexin V/FITC-PI staining based flow cytometry assay (reference value: 6.65%); assay type: functional
[16] = tested on: Hep 3B2; assay: Induction of cell cycle arrest in human Hep3B cells assessed as accumulation at S phase at 10 uM incubated for 48 hrs by flow cytometry analysis (reference value: 30.56 %); assay type: functional
[17] = tested on: hERG; assay: Selectivity ratio of IC50 for inhibition of hERG by automated patch clamp analysis to IC50 for antiproliferative activity against human BEL-7402/5-FU cells assessed as reduction in cell viability incubated for 72 hrs by MTT assay; assay type: toxicity, cell-based; conditions: read-out: Ratio IC50
[18] = tested on: Hep 3B2; assay: Induction of apoptosis in human Hep3B cells assessed as viable cells at 10 uM measured after 48 hrs by Annexin V/FITC-PI staining based flow cytometry assay (reference value: 90.09%); assay type: functional; conditions: read-out: Activity
[19] = molecular target: T1, 14-3-3 protein eta (Homo sapiens) (UniProt Q04917); assay: Inhibition of 14-3-3 eta in human Hep3B cells assessed as reduction in AKT phosphorylation at S473 residue measured after 24 hrs by western blot analysis; assay type: cell-based; conditions: dose 0.5-5 µM, DDE = dose-dependent effect
T1 sequence (whole entry): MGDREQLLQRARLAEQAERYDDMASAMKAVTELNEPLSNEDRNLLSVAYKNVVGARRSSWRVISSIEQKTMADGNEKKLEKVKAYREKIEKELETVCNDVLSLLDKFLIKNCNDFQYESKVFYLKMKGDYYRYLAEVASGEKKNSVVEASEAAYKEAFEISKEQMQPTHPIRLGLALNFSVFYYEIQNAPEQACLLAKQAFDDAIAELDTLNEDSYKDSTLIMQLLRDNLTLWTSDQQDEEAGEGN

[20] = tested on: Hep 3B2; assay: Induction of cell cycle arrest in human Hep3B cells assessed as accumulation at G0/G1 phase at 10 uM incubated for 48 hrs by flow cytometry analysis (reference value: 60.85 %); assay type: functional
[21] = Metabolic stability in human liver microsomes assessed as half life; assay type: ADME, Microsome
[22] = tested on: Hep 3B2; assay: Induction of cell cycle arrest in human Hep3B cells assessed as accumulation at G0/G1 phase at 1 uM incubated for 48 hrs by flow cytometry analysis (reference value: 60.85 %); assay type: functional
[23] = Metabolic stability in rat liver microsomes assessed as intrinsic clearance; assay type: ADME, Microsome; conditions: read-out: CLH
[24] = tested on: Hep 3B2; assay: Induction of apoptosis in human Hep3B cells assessed as viable cells at 5 uM measured after 48 hrs by Annexin V/FITC-PI staining based flow cytometry assay (reference value: 90.09%); assay type: functional; conditions: read-out: Activity
[25] = tested on: Hep 3B2; assay: Induction of cell cycle arrest in human Hep3B cells assessed as accumulation at S phase at 5 uM incubated for 48 hrs by flow cytometry analysis (reference value: 30.56 %); assay type: functional
[26] = molecular target: Voltage-gated inwardly rectifying potassium channel KCNH2 (Homo sapiens, UniProt Q12809); assay: Inhibition of hERG by automated patch clamp analysis; assay type: toxicity
[27] = tested on: Hep 3B2; assay: Induction of cell cycle arrest in human Hep3B cells assessed as accumulation at G2/M phase at 2.5 uM incubated for 48 hrs by flow cytometry analysis (reference value: 8.59 %); assay type: functional
[28] = tested on: hERG; assay: Selectivity ratio of IC50 for inhibition of hERG by automated patch clamp analysis to IC50 for antiproliferative activity against human SNU-387 cells assessed as reduction in cell viability incubated for 72 hrs by MTT assay; assay type: toxicity, cell-based; conditions: read-out: Ratio IC50
[29] = tested on: Hep 3B2; assay: Induction of apoptosis in human Hep3B cells assessed as early apoptotic cells at 5 uM measured after 48 hrs by Annexin V/FITC-PI staining based flow cytometry assay (reference value: 6.65%); assay type: functional
[30] = tested on: hERG; assay: Selectivity ratio of IC50 for inhibition of hERG by automated patch clamp analysis to IC50 for antiproliferative activity against human Hep3B cells assessed as reduction in cell viability incubated for 72 hrs by MTT assay; assay type: toxicity, cell-based; conditions: read-out: Ratio IC50
[31] = tested on: Hep 3B2; assay: Antiproliferative activity against human Hep3B cells assessed as reduction in cell viability measured after 7 days by crystal violet staining based assay; assay type: functional; conditions: dose 1-10 µM, time 7.0 day, DDE = dose-dependent effect
[32] = molecular target: T1, 14-3-3 protein eta (Homo sapiens); assay: Inhibition of 14-3-3 eta in human Hep3B cells assessed as reduction in AKT phosphorylation at T308 residue measured after 24 hrs by western blot analysis; assay type: cell-based; conditions: dose 0.5-5 µM, DDE = dose-dependent effect
[33] = tested on: Hep 3B2; assay: Induction of cell cycle arrest in human Hep3B cells assessed as accumulation at G2/M phase at 1 uM incubated for 48 hrs by flow cytometry analysis (reference value: 8.59 %); assay type: functional

Chain of Voltage-gated inwardly rectifying potassium channel KCNH2 (Q12809 whole entry): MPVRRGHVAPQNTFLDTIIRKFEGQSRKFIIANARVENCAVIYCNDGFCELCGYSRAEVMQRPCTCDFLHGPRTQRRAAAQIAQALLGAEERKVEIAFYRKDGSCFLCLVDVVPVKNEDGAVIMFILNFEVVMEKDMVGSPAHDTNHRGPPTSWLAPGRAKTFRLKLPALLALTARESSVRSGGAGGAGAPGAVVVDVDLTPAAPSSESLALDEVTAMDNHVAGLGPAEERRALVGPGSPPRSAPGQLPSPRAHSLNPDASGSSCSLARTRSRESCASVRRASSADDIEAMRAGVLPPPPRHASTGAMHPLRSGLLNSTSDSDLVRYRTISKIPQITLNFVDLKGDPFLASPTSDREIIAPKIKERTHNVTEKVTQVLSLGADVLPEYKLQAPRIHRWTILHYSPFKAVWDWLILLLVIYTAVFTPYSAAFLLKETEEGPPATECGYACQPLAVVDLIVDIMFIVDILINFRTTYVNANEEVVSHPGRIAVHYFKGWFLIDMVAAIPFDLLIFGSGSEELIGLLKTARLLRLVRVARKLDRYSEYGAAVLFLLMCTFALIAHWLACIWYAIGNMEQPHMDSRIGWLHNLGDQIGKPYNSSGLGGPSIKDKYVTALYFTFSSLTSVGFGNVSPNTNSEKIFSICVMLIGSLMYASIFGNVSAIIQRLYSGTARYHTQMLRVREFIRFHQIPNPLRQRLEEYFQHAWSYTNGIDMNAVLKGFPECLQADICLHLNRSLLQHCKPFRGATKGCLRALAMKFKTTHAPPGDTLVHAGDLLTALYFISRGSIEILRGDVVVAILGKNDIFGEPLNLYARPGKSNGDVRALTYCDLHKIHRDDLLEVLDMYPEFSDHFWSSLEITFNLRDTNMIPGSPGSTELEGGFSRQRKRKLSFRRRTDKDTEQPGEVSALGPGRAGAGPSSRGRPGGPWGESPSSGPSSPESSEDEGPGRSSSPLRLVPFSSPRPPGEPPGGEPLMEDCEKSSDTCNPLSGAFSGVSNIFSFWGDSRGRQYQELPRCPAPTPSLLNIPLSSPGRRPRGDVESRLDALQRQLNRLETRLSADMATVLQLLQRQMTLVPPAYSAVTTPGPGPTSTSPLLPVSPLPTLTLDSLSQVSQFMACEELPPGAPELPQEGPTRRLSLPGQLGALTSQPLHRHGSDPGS

pIC50 [3]: 5.46
half-life [5]: 9.25 min
pIC50 [10]: 5.26
pIC50 [11]: 5.34
pIC50 [13]: 5.23
inhibition [19]: Dde
half-life [21]: 7.31 min
CLint scaled [23]: 269 mL/min/kg
inhibition [32]: Dde
Compound: COc1cccc(CNCc2c(C(=O)O)n(Cc3ccc(C)cc3)c3cc(C(C)C)ccc23)c1
Activity [1]: 7.79%
Activity [2]: 35.59%
pIC50 [4]: 5.39
selectivity ratio at 72 h [6]: 11.8
viability at 1 µM [7]: 88%
Activity [8]: 0.38%
inhibition [9]: Dde
Activity [12]: 36.4%
Activity [14]: 2.82%
Activity [15]: 6.8%
Activity [16]: 29.71%
selectivity ratio at 72 h [17]: 5.84
viability at 10 µM [18]: 61.9%
Activity [20]: 67.7%
Activity [22]: 58.63%
viability at 5 µM [24]: 79.9%
Activity [25]: 37.73%
pIC50 [26]: 4.46
Activity [27]: 4.47%
selectivity ratio at 72 h [28]: 6.32
Activity [29]: 11.22%
selectivity ratio at 72 h [30]: 8.5
Activity [31]: Dde
Activity [33]: 5.79%
